Data from patent US4452814A, “Nitrosourea derivatives” (priority 1981, dated 1984).

Assays:
Leukemia L 1210 cells = assay: Antileukemic activity on Leukemia L 1210 in mice (i.p. inoculated, compound i.p.); assay type: in vivo, Male BDF1 mice; settings: for Mean survival days, treated: control 7.7
Procedure: Antileukemic activity of a typical nitrosourea derivative of formula (I) according to this invention was tested on Leukemia L 1210 in mice, details of which are given below.
Male BDF1 mice, aged about 7 weeks old and weighing 22±1 g were used in groups of five animals for each test.
Leukemia L 1210 cells were inoculated intraperitoneally in a concentration of 1×10^6 cells/0.05 ml/mouse.
The test compound was dissolved in a physiological salt solution to give a series of solutions in predetermined concentrations and 0.1 ml of the each solution was administered intraperitoneally to each mouse once a day from the 24th hour after the tumor cell inoculation for 3 consecutive days. The antileukemic activity of the test compound was assessed by mean survival days and percentage increase in life-span. The percentage increase in life-span (ILS) was calculated as follows: [formula] T: The mean survival days of the treated animals C: The mean survival days of the untreated animals
The control test for this purpose was carried out in the same way as that used for the test compound except that 0.1 ml of the physiological salt solution was administered in place of the solution of the test compound.

[1] = Acute toxicity (LD50) in BDF1 male mice, i.p. or i.v., Litchfield-Wilcoxon's method; assay type: in vivo; settings: BDF1 male mice about 6 weeks old, observed after 21 days
Text: The nitrosourea derivatives of formulae (I), (II) and (III) according to this invention are further characterized by their low toxicity. Thus, acute toxicity represented by LD50 of some typical compounds of formula (I), when administered intraperitoneally (i.p.) or intravenously (i.v.) to BDF1 male mice aged about 6-weeks old and observed after the lapse of 21 days according to Litchfield-Wilcoxon's method, is as follows: […]

[2] = test system: experimental leukemia and tumors; settings: wide variety of experimental leukemia and tumors; cited from earlier work
[3] = 0.5 mg/kg i.p. once a day for 3 days
[4] = 1 mg/kg i.p. once a day for 3 days
[5] = 2 mg/kg i.p. once a day for 3 days
[6] = 8 mg/kg i.p. once a day for 3 days
[7] = 16 mg/kg i.p. once a day for 3 days

Structure (SMILES): NC(=O)CNC(=O)N(CCCl)N=O [N-[N'-(2-chloroethyl)-N'-nitrosocarbamoyl]glycine amide]
- ILS (percentage increase in life-span) (Leukemia L 1210 cells; [3]): 32.5%
- Mean survival days, treated (Leukemia L 1210 cells; [3]): 10.2 days
- ILS (percentage increase in life-span) (Leukemia L 1210 cells; [4]): 37.7%
- Mean survival days, treated (Leukemia L 1210 cells; [4]): 10.6 days
- ILS (percentage increase in life-span) (Leukemia L 1210 cells; [5]): 81.8%
- Mean survival days, treated (Leukemia L 1210 cells; [5]): 14.0 days
- ILS (percentage increase in life-span) (Leukemia L 1210 cells; [6]): > 679.2%
- Mean survival days, treated (Leukemia L 1210 cells; [6]): > 60.0 days
- ILS (percentage increase in life-span) (Leukemia L 1210 cells; [7]): > 679.2%
- Mean survival days, treated (Leukemia L 1210 cells; [7]): > 60.0 days
- LD50 ([1]; i.v.): 22.4 mg/kg
- LD50 at 504 h ([1]; mouse, in vivo, ip): 21.2 mg/kg

Structure (SMILES): NC(=O)C1CCCN1C(=O)N(CCCl)N=O (stereo not drawn) [N-[N'-(2-chloroethyl)-N'-nitrosocarbamoyl]-proline amide]
- LD50 ([1]; i.p.): 219.6 mg/kg
- LD50 ([1]; i.v.): 195.4 mg/kg

Structure (SMILES): CN(CC(N)=O)C(=O)N(CCCl)N=O [N-[N'-(2-chloroethyl)-N'-nitrosocarbamoyl]sarcosine amide]
- LD50 ([1]; i.p.): 392.0 mg/kg
- LD50 ([1]; i.v.): 426.6 mg/kg

Structure (SMILES): O=NN(CCCl)C(=O)N[C@H]1[C@H](O)CCC[C@@H]1O [DONU, 1-(2-chloroethyl)-3-(1,3/2N-dihydroxycyclohexyl)-1-nitrosourea]
- antitumor activity, in words [2]: broad spectrum of antitumor activity

Structure (SMILES): O=NN(CCCl)C(=O)N[C@@H]1O[C@H](CO)[C@@H](O)[C@H](O)[C@H]1O [GANU, 1-(2-chloroethyl)-3-(β-D-glucopyranosyl)-1-nitrosourea]
- antitumor activity, in words [2]: broad spectrum of antitumor activity
